US20250082717A1, “COMPOSITIONS FOR TREATING KIDNEY DISEASE” (RHYTHM PHARMACEUTICALS, INC., priority 2018, published 2025)
Entries after “also recorded” stand apart in the source; their conditions may differ.

What was measured:
BBS10^−/− mice = assay: Setmelanotide daily for one week, body weight and plasma and urine biomarker levels; assay type: in vivo
Method: In order to assess the effect of setmelanotide on body weight and the levels of certain biomarkers, BBS10^−/− mice were administered setmelanotide (1.25 mg/kg) daily for one week. […] However, setmelanotide treatment did result in an increase in urine calcium levels as well as an increase in urine creatine levels (FIG. 4).
Additional studies in these mice entailed measurement of blood plasma levels of the biomarkers leptin and adiponectin after treatment with setmelanotide (1.25 mg/kg). […] Further, the leptin: adiponectin ration was decreased in setmelanotide treated mice.

[1] = tested on: BBS10^−/− mice on high-fat/high-glucose diet; assay: Escalating setmelanotide dosing study over 10 days, renal IL-23 mRNA expression by real-time quantitative PCR; assay type: in vivo; details: obese BBS10^−/− mice on HF/HG diet; escalating doses 0.05-1.25 mg/kg over 10 days; relative to Gapdh
Method: (§1) In order to assess the effect of setmelanotide on plasma leptin levels disproportionate from body weight loss, BBS10^−/− and wild type mice were fed a high fat/high glucose diet from weaning and body weight assessed on a weekly basis. At four months of age, mice were transferred to metabolic cages and acclimated for 3 days. An escalating setmelanotide dosing study over 10-days was conducted in accordance with regimen shown below in Table 1:
(§2) At the completion of the study, mice were sacrificed and blood and kidney collected for analysis of circulating leptin concentration and IL-23 mRNA expression, respectively. Plasma leptin concentrations were determined using a leptin ELISA kit (Catalog: #: EZML-82K, Millipore, Billerica, Massachusetts, USA). For analysis of renal IL-23 expression messenger RNA was extracted from tissue samples using TRIzol® reagent (#15596-018, Life Technologies, USA). […] The real-time quantitative PCR reaction was performed in a C1000™ thermocycler (CFX96, Real-Time System, BioRad, USA) using SYBR® Green. […] Results were analyzed with the CFX Manager™ software (BioRad, USA). Gene expression quantification was assessed by reporting measured levels relative to Gapdh expression in each separate sample.

[2] = tested on: BBS10^−/− mice on high-fat/high-glucose diet; assay: Escalating setmelanotide dosing study over 10 days, plasma leptin by ELISA; assay type: in vivo; details: obese BBS10^−/− mice on HF/HG diet; escalating doses 0.05-1.25 mg/kg over 10 days; disproportionate from body weight loss
Method: as §1, §2

[3] = clinical trials (Chen et al. J. Clin. Endocrinol. Metab. 2015); cited from earlier work

## CC(=O)N[C@@H](CCCNC(=N)N)C(=O)N[C@H]1CSSC[C@@H](C(N)=O)NC(=O)[C@H](Cc2c[nH]c3ccccc23)NC(=O)[C@H](CCCNC(=N)N)NC(=O)[C@@H](Cc2ccccc2)NC(=O)[C@H](Cc2cnc[nH]2)NC(=O)[C@@H](C)NC1=O [setmelanotide, Ac-Arg-c (Cys-D-Ala-His-D-Phe-Arg-Trp-Cys)-NH2]
BBS10^−/− mice; 1.25 mg/kg daily for one week
  body weight: Lowered
  urine calcium levels: increase
BBS10^−/− mice; 1.25 mg/kg daily for one week, FIG. 4
  urine creatine levels: increase
BBS10^−/− mice; 1.25 mg/kg, effect not seen in vehicle and pair-fed mice, FIG. 5A
  blood plasma levels of leptin: decreasing levels
BBS10^−/− mice; 1.25 mg/kg, effect not seen in vehicle and pair-fed mice, FIG. 5B
  blood plasma levels of adiponectin: increased levels
BBS10^−/− mice; 1.25 mg/kg, effect not seen in vehicle and pair-fed mice, FIG. 5C
  leptin: adiponectin ration: decreased
[1]
  renal IL-23 mRNA expression: lowers; also recorded: normalization
[2]
  plasma leptin levels: lowers; also recorded: decrease
[3]
  effect on blood pressure: has not been shown to adversely affect blood pressure
